pIC50: −log10 of the molar value. Where a SMILES comes first, the peptide text is derived from it. The star is where a group is joined. Cbz = O=C(OCc1ccccc1)*
Key:
Type in all cases: functional, cell-based
[1] = tested on: DV-90; assay: cells; details: Homo sapiens;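 note: Read-out is a viability assay, with IC50 reflecting the drop in DV-90 cell growth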
Description: SANGER: Inhibition of human DV-90 cell growth in a cell viability assay.

[2] = tested on: NCI-H838; assay: cells; details: Homo sapiens;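 note: growth inhibition of human NCI-H838 cells, read out by a cell viability assay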
Description: SANGER: Inhibition of human NCI-H838 cell growth in a cell viability assay.

[3] = tested on: EFE-184; assay: cells; details: Homo sapiens
Description: SANGER: Inhibition of human EFE-184 cell growth in a cell viability assay.

[4] = tested on: IPC-298; assay: SANGER: Inhibition of human IPC-298 cell growth in a cell viability assay.
[5] = tested on: Calu-1; assay: SANGER: Inhibition of human Calu-1 cell growth in a cell viability assay.
[6] = tested on: TT; assay: cells; details: Homo sapiens
Description: SANGER: Inhibition of human TT cell growth in a cell viability assay.

[7] = tested on: CCF-STTG1; assay: cells; details: Homo sapiens;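 note: growth inhibition of human CCF-STTG1 cells, determined with a cell viability read-out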
Description: SANGER: Inhibition of human CCF-STTG1 cell growth in a cell viability assay.

[8] = tested on: ECC12; assay: cells; details: Homo sapiens
Description: SANGER: Inhibition of human ECC12 cell growth in a cell viability assay.

[9] = tested on: SNG-M; assay: cells; details: Homo sapiens
Description: SANGER: Inhibition of human SNG-M cell growth in a cell viability assay.

[10] = tested on: Caov-3 cell line; assay: cells; details: Homo sapiens;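 note: cell growth inhibition read out by a viability assay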
Description: SANGER: Inhibition of human Caov-3 cell growth in a cell viability assay.

[11] = tested on: NCI-H1618; assay: cells; details: Homo sapiens;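 note: growth inhibition of human NCI-H1618 cells, measured by a cell viability assay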
Description: SANGER: Inhibition of human NCI-H1618 cell growth in a cell viability assay.

[12] = tested on: SNU-475; assay: cells; details: Homo sapiens
Description: SANGER: Inhibition of human SNU-475 cell growth in a cell viability assay.

[13] = tested on: PLC-PRF-5; assay: cells; details: Homo sapiens;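 note: growth inhibition of human PLC-PRF-5 cells, read out with a viability assay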
Description: SANGER: Inhibition of human PLC-PRF-5 cell growth in a cell viability assay.

[14] = tested on: C-4-II; assay: SANGER: Inhibition of human C-4-II cell growth in a cell viability assay.
[15] = tested on: Caov-4; assay: cells; details: Homo sapiens
Description: SANGER: Inhibition of human Caov-4 cell growth in a cell viability assay.

[16] = tested on: MES-SA; assay: cells; details: Homo sapiens;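 note: growth inhibition of human MES-SA cells, read out with a cell viability assay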
Description: SANGER: Inhibition of human MES-SA cell growth in a cell viability assay.

[17] = tested on: TC-YIK; assay: SANGER: Inhibition of human TC-YIK cell growth in a cell viability assay.
[18] = tested on: CP67-MEL; assay: SANGER: Inhibition of human CP67-MEL cell growth in a cell viability assay.
[19] = tested on: NCI-H128; assay: SANGER: Inhibition of human NCI-H128 cell growth in a cell viability assay.
[20] = tested on: SW 1116; assay: cells; details: Homo sapiens;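 note: growth inhibition of SW1116 cells, read out with a cell viability assay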
Description: SANGER: Inhibition of human SW1116 cell growth in a cell viability assay.

[21] = tested on: D-423MG; assay: cells; details: Homo sapiens
Description: SANGER: Inhibition of human D-423MG cell growth in a cell viability assay.

[22] = tested on: CHP-134; assay: SANGER: Inhibition of human CHP-134 cell growth in a cell viability assay.
[23] = tested on: YH-13; assay: cells; details: Homo sapiens;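 note: cell viability readout of growth suppression in the human YH-13 cell line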
Description: SANGER: Inhibition of human YH-13 cell growth in a cell viability assay.

[24] = tested on: BALL-1; assay: cells; details: Homo sapiens;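 note: growth inhibition of BALL-1 cells, read out with a cell viability assay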
Description: SANGER: Inhibition of human BALL-1 cell growth in a cell viability assay.

[25] = tested on: EPLC-272H; assay: cells; details: Homo sapiens
Description: SANGER: Inhibition of human EPLC-272H cell growth in a cell viability assay.

[26] = tested on: TI-73; assay: cells; details: Homo sapiens;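 note: cell viability assay measuring how much compounds suppress growth of the cultured cell line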
Description: SANGER: Inhibition of human TI-73 cell growth in a cell viability assay.

[27] = tested on: NCI-H2291; assay: cells; details: Homo sapiens
Description: SANGER: Inhibition of human NCI-H2291 cell growth in a cell viability assay.

[28] = tested on: SW900; assay: cells; details: Homo sapiens;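 note: IC50 is the concentration that inhibits SW900 cell growth, measured by a cell viability assay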
Description: SANGER: Inhibition of human SW900 cell growth in a cell viability assay.

[29] = tested on: BT-549; assay: cells; details: Homo sapiens
Description: SANGER: Inhibition of human BT-549 cell growth in a cell viability assay.

[30] = tested on: LU-135; assay: cells; details: Homo sapiens
Description: SANGER: Inhibition of human LU-135 cell growth in a cell viability assay.

[31] = tested on: NCI-H2029; assay: cells; details: Homo sapiens;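 note: Read-out is a viability assay on the cultured cells, and IC50 is the concentration that suppresses cell growth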
Description: SANGER: Inhibition of human NCI-H2029 cell growth in a cell viability assay.

[32] = tested on: D-566MG; assay: cells; details: Homo sapiens
[33] = tested on: NCI-H1666; assay: cells; details: Homo sapiens;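 note: growth inhibition of the cell line, read out with a cell viability assay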
Description: SANGER: Inhibition of human NCI-H1666 cell growth in a cell viability assay.

[34] = tested on: TGBC11TKB; assay: cells; details: Homo sapiens;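 note: growth inhibition of human TGBC11TKB cells, measured by a cell viability assay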
Description: SANGER: Inhibition of human TGBC11TKB cell growth in a cell viability assay.

[35] = tested on: NCI-H2107; assay: SANGER: Inhibition of human NCI-H2107 cell growth in a cell viability assay.
[36] = tested on: ECC10; assay: cells; details: Homo sapiens;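 note: growth inhibition of ECC10 cells, read out by a cell viability assay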
Description: SANGER: Inhibition of human ECC10 cell growth in a cell viability assay.

[37] = tested on: H9; assay: cells; details: Homo sapiens
Description: SANGER: Inhibition of human H9 cell growth in a cell viability assay.

SMILES	pIC50 [18]	pIC50 ([19]; Homo sapiens, NCI-H128)	pIC50 [20]	pIC50 [21]	pIC50 [22]	pIC50 [23]	pIC50 [24]	pIC50 [25]	pIC50 [26]	pIC50 [27]	pIC50 [28]	pIC50 [29]	pIC50 [30]	pIC50 [31]	pIC50 [32]	pIC50 [33]	pIC50 [34]	also measured
O=S(=O)(O)c1ccc2cc(/N=N/c3cc(S(=O)(=O)O)c4cccnc4c3O)ccc2c1																		pIC50 [1]: < 4.80; pIC50 [2]: < 4.80; pIC50 [3]: < 4.80; pIC50 [4]: < 4.80; pIC50 [5]: < 4.80; pIC50 [6]: < 4.80; pIC50 [7]: < 4.80; pIC50 [8]: < 4.80; pIC50 [9]: < 4.80; pIC50 [10]: < 4.80; pIC50 [11]: < 4.80; pIC50 [12]: < 4.80; pIC50 [13]: < 4.80; pIC50 [14]: < 4.80; pIC50 [15]: < 4.80; pIC50 [16]: < 4.80
CCCCCCCCCCCC1=C(O)C(=O)C=C(O)C1=O [EMBELIN]																		pIC50 [1]: 4.52; pIC50 [2]: < 4.49; pIC50 [3]: 4.58; pIC50 [4]: 4.87; pIC50 [5]: 4.77; pIC50 [6]: 4.63; pIC50 [7]: 4.86; pIC50 [9]: 5.15; pIC50 [10]: < 4.49; pIC50 [11]: < 4.49; pIC50 [12]: < 4.49; pIC50 [13]: 5.16; pIC50 [14]: < 4.49; pIC50 [16]: 4.78
COc1cc(N2CCC(N3CCN(C)CC3)CC2)ccc1Nc1ncc(Cl)c(Nc2ccccc2S(=O)(=O)C(C)C)n1 [TAE-684]	< 5.70	< 5.70																pIC50 [17]: < 5.70
C/C(=C\c1csc(C)n1)[C@@H]1C[C@@H]2O[C@]2(C)CCC[C@H](C)[C@H](O)[C@@H](C)C(=O)C(C)(C)[C@@H](O)CC(=O)O1 [PATUPILONE]																		pIC50 [1]: 7.83; pIC50 [2]: 7.93; pIC50 [3]: < 7.49; pIC50 [4]: 7.66; pIC50 [5]: 7.97; pIC50 [6]: < 7.49; pIC50 [7]: 8.23; pIC50 [9]: 9.24; pIC50 [10]: 7.86; pIC50 [11]: 8.12; pIC50 [12]: < 7.49; pIC50 [13]: < 7.49; pIC50 [14]: 8.27; pIC50 [16]: 8.70
CS(=O)(=O)N1CCN(Cc2cc3nc(-c4cccc5[nH]ncc45)nc(N4CCOCC4)c3s2)CC1 [PICTILISIB]			< 5.40	5.96	< 5.40	6.52	< 5.40	6.16	< 5.40	< 5.40	< 5.40	< 5.40	< 5.40	< 5.40	5.79	5.60	< 5.40	
NC(=O)c1cccc(-c2cc(Nc3ccc(OC(F)(F)F)cc3)ncn2)c1	< 5.89	< 5.89																pIC50 [35]: < 5.89
CO[C@@H]1[C@H](N(C)C(=O)c2ccccc2)C[C@H]2O[C@]1(C)n1c3ccccc3c3c4c(c5c6ccccc6n2c5c31)C(=O)NC4 [MIDOSTAURIN]																		pIC50 [4]: < 6.29; pIC50 [5]: < 6.29; pIC50 [14]: 6.46
Cc1cc(N2CCOCC2)cc2[nH]c(-c3c(NC[C@@H](O)c4cccc(Cl)c4)cc[nH]c3=O)nc12	6.05	< 5.29																pIC50 [35]: < 5.29
CC(C)C[C@H](NC(=O)[C@H](Cc1ccccc1)NC(=O)c1cnccn1)B(O)O [BORTEZOMIB]		< 7.70																pIC50 [17]: < 7.70; pIC50 [8]: 8.86
C[C@@H](Oc1cc(-c2cnn(C3CCNCC3)c2)cnc1N)c1c(Cl)ccc(F)c1Cl [CRIZOTINIB]	< 5.70	< 5.70																pIC50 [17]: < 5.70
C=CC(=O)N1CCCC(Nc2nc(Nc3ccc(N(C)C(=O)CC)cc3)nc3[nH]cnc23)C1 (stereo not given)	< 4.99	< 4.99																pIC50 [35]: < 4.99
NC(=O)Nc1cc(-c2cccc(F)c2)sc1C(=O)N[C@H]1CCCNC1 [AZD-7762]			< 5.70	6.48		6.80	< 5.70	6.66	6.68	< 5.70	5.95	5.90	< 5.70	< 5.70	6.83	< 5.70	6.95	pIC50 [36]: < 5.70; pIC50 [37]: 6.91
O=C(NCCCNc1nc(Nc2cccc(NC(=O)N3CCCC3)c2)ncc1I)c1cccs1 [BX-795]			< 5.30	5.79	5.71	6.20	< 5.30	< 5.30	5.67	< 5.30	< 5.30	5.35	< 5.30	< 5.30	5.88	< 5.30	< 5.30	
COc1ccc(-c2cc3nccn3c(Nc3ncccc3C(N)=O)n2)cc1OC																		pIC50 [1]: < 5.10; pIC50 [2]: < 5.10; pIC50 [3]: < 5.10; pIC50 [4]: < 5.10; pIC50 [5]: < 5.10; pIC50 [6]: < 5.10; pIC50 [7]: 5.14; pIC50 [9]: 5.65; pIC50 [10]: < 5.10; pIC50 [11]: < 5.10; pIC50 [12]: < 5.10; pIC50 [13]: < 5.10; pIC50 [14]: < 5.10; pIC50 [16]: 6.02
OC[C@H](Cc1ccccc1)Nc1nc(Oc2ccc3c(c2)CCC3)nc2c1ncn2Cc1ccc(-c2ccccc2)cc1																		pIC50 [1]: < 4.99; pIC50 [2]: < 4.99; pIC50 [3]: < 4.99; pIC50 [4]: < 4.99; pIC50 [5]: 5.58; pIC50 [6]: < 4.99; pIC50 [7]: < 4.99; pIC50 [9]: 5.23; pIC50 [10]: < 4.99; pIC50 [11]: < 4.99; pIC50 [12]: < 4.99; pIC50 [13]: < 4.99; pIC50 [14]: < 4.99; pIC50 [16]: < 4.99
O=C1NC(=O)c2c1c(-c1ccccc1Cl)cc1[nH]c3ccc(O)cc3c21			< 5.70	< 5.70	< 5.70	< 5.70	< 5.70	< 5.70	< 5.70	< 5.70	< 5.70	< 5.70	< 5.70	< 5.70	< 5.70	< 5.70	< 5.70	pIC50 [36]: 5.85; pIC50 [37]: 6.08
CN(C)CCOc1ccc(-c2nc(-c3ccncc3)c(-c3ccc4c(c3)CC/C4=N\O)[nH]2)cc1 [SB590885]			< 5.30	< 5.30	< 5.30	< 5.30	< 5.30	< 5.30	< 5.30	< 5.30	< 5.30	< 5.30	< 5.30	< 5.30	< 5.30	< 5.30	< 5.30	pIC50 [36]: < 5.30; pIC50 [37]: 6.40
NC1(c2ccc(-c3nc4ccn5c(=O)[nH]nc5c4cc3-c3ccccc3)cc2)CCC1 [MK-2206]			< 5.40	5.62	< 5.40	5.61	< 5.40	5.93	< 5.40	< 5.40		< 5.40	< 5.40	< 5.40	< 5.40		< 5.40	pIC50 [36]: 5.40; pIC50 [37]: 6.41
COc1ccc(N(C(=O)Oc2c(C)cccc2C)c2ccnc(Nc3ccc(N4CCN(C)CC4)cc3)n2)c(OC)c1	< 5.29	< 5.29																pIC50 [35]: < 5.29
CC1(C)CCC(c2ccc(Cl)cc2)=C(CN2CCN(c3ccc(C(=O)NS(=O)(=O)c4ccc(N[C@H](CCN5CCOCC5)CSc5ccccc5)c(S(=O)(=O)C(F)(F)F)c4)cc3)CC2)C1 [NAVITOCLAX]			< 5.70	< 5.70	6.79	< 5.70	< 5.70	< 5.70	< 5.70	< 5.70	< 5.70	< 5.70	6.73	< 5.70	< 5.70	< 5.70	< 5.70	pIC50 [36]: 7.42; pIC50 [37]: < 5.70
Cc1ccc(-n2nc(C(C)(C)C)cc2NC(=O)Nc2ccc(OCCN3CCOCC3)c3ccccc23)cc1 [DORAMAPIMOD]			< 5.00	< 5.00	< 5.00	< 5.00	< 5.00	< 5.00	< 5.00	< 5.00	< 5.00	< 5.00	< 5.00	< 5.00	< 5.00	< 5.00	< 5.00	pIC50 [36]: < 5.00; pIC50 [37]: < 5.00
CC(C)C[C@@H](C=O)NC(=O)[C@H](CC(C)C)NC(=O)[C@H](CC(C)C)NC(=O)OCc1ccccc1 [MG-132] (Cbz-Leu-Leu-Leu-aldehyde)	6.57																	pIC50 [35]: < 6.00; pIC50 [17]: < 6.00; pIC50 [8]: < 6.00; pIC50 ([19]; nci-h128): < 6.00
